Measured values taken from PMC9722750, “Antibacterial and β-amyloid precursor protein-cleaving enzyme 1 inhibitory polyketides from the fungus Aspergillus chevalieri” (Frontiers in Microbiology, 2022).
In brackets after ≈: the same amount, converted by molar mass. Structures can show the parent of a compound that is named as a salt.

Experiments:
[1] = tested on: methicillin-resistant S. aureus (MRSA); assay: Antibacterial assay; type: cell-based, Staphylococcus aureus; settings: for inhibition at 200 µM: read-out: Inhibition rate against Methicillin-resistant Staphylococcus aureus
Experimental: (§1) In this study, the tested bacteria strains, Escherichia coli ATCC25922, Staphylococcus aureus subsp. aureus ATCC29213, Salmonella enterica subsp. enterica ATCC14028, Pseudomonas aeruginosa ATCC27853, methicillin-resistant S. aureus (MRSA) were purchased from China General Microbiological Culture Collection Center (CGMCC). All the strains were cultured in Mueller-Hinton broth (Oxoid, Thermo Fisher Scientific) at 37°C with shaking at 200 rpm overnight. Each culture was diluted 40-fold in fresh MHB broth and incubated at 37°C with shaking (200 rpm) for another 2–3 h. The mid-log phase cultures were diluted to a concentration of 5 × 10^5 CFU/mL by McFarland Standards, which was used as seeding solution for following antibacterial assays. Each well of the compound-containing 96-well plates was seeded with 100 μL of aforementioned seeding solution, giving a final compound concentration 200 μM. Plates were covered and incubated at 37°C for 24 h. The inhibitory rates were calculated by [(1-OD625sample)/OD625negative control] × 100%. Penicillin G sodium and ceftazidime were used as positive controls (inhibitory rates >99%) ([Zhao Z.-Z. et al., 2018]). Compounds were first tested for their potential against five bacterial strains at a single concentration of 200 μM. If the inhibitory rate above 50%, different concentrations of the compounds were further evaluated for the antibacterial ability.

[2] = tested on: Staphylococcus aureus subsp. aureus ATCC29213; assay: Antibacterial assay; type: cell-based; settings: 200 μM, 24 h
Experimental: as §1

[3] = tested on: Salmonella enterica subsp. enterica ATCC14028; assay: Antibacterial assay; type: cell-based; settings: for inhibition at 200 µM: Salmonella enterica, ATCC14028, 24 h, read-out: Inhibition rate against Salmonella enterica subsp. enterica
Experimental: as §1

[4] = tested on: Escherichia coli ATCC25922; assay: Antibacterial assay; type: cell-based
Experimental: as §1

[5] = tested on: Pseudomonas aeruginosa ATCC27853; assay: Antibacterial assay; type: cell-based; settings: for inhibition at 200 µM: Pseudomonas aeruginosa, ATCC27853, read-out: Inhibition rate against Pseudomonas aeruginosa
Experimental: as §1

[6] = biological target: β-amyloid precursor protein-cleaving enzyme 1 (β-secretase, BACE1) (Homo sapiens, UniProt P56817); assay: BACE1 FRET assay; type: biochemical; settings: 3 h at room temperature, read-out: IC50 BACE1 inhibition
Chain of β-amyloid precursor protein-cleaving enzyme 1 (β-secretase, BACE1) (P56817 22-501 limits assumed): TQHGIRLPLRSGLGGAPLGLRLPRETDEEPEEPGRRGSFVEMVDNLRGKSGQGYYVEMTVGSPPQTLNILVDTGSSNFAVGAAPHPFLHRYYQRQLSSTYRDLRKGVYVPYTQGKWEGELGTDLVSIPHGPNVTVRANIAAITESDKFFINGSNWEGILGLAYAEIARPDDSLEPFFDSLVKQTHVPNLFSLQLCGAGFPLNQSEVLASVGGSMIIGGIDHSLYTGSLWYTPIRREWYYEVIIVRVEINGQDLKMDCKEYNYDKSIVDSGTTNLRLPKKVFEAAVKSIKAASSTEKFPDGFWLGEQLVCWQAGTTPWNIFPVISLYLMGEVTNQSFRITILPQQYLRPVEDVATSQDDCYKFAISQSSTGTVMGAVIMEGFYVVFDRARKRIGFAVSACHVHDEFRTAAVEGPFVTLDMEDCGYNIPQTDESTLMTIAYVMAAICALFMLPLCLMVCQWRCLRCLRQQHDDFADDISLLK
Experimental: β-amyloid precursor protein-cleaving enzyme 1 (β-secretase, BACE1) assays were performed according to the literature ([Qi et al., 2018]; [Yatsu et al., 2019]). First, 10 μL of the test sample, 10 μL of the 722 nM BACE1 substrate (Rh-[…]-Quencher in 50 mM ammonium bicarbonate), and 10 μL of the BACE1 enzyme (1 U/mL) were mixed in black 384-well plates and incubated for 3 h at room temperature. The fluorescence intensity was measured at 540 nm excitation and 590 nm emission using a microplate reader (Tecan Spark 10M, TECAN, Männedorf, Switzerland) at the time points of 1 h and 3 h. The BACE1 inhibition rate was calculated by the following equation: BACE1 inhibition rate (%) = {1–[(S–S0)–(B–B0)/(C–C0)–(B–B0)]} × 100, where C is the fluorescence of a DMSO control (enzyme, substrate, and assay buffer with DMSO) after 3 h of incubation, C0 is the fluorescence of the DMSO control at 1 h after incubation, B is the fluorescence of a non-enzyme control (substrate and assay buffer with DMSO) after 3 h of incubation, B0 is the fluorescence of the non-enzyme control at 1 h after incubation, S is the fluorescence of the tested samples (enzyme, sample solution, and substrate) after 3 h of incubation, and S0 is the fluorescence of the tested samples at 1 h after incubation. The IC50 values were calculated by GraphPad Prism software (v5.02, CA, USA).

in vitro = type: cell-based; settings: human
Experimental: The human lung cancer cell line A549 used in this study was purchased from Conservation Genetics CAS Kunming Cell Bank. The cells were cultured in high-glucose DMEM with 10% fetal bovine serum, 100 mg/mL streptomycin, 100 U/mL penicillin, and kept in an incubator at 37°C under an atmosphere of 5% CO2. The cell viability was assessed by 3-(4,5-dimethylthiazol-2-yl)-2,5-diphenyltetrazolium bromide (MTT) method. […] In brief, 100 μL of adherent cells was seeded to each well of a 96-well cell culture plate. The plate was kept for 12 h for adherence. […] However, suspended cells were seeded with the same density of 1 × 10^5 cells/mL every 100 μL of culture medium before adding the test compounds. Then the plate was incubated for another 48 h. After 48 h of incubation, 100 μg of MTT was added to each well, another 4 h of incubation was continued at 37°C. After removal of 100-μL culture medium, the cells were lysed with 20% SDS-50% DMF (100 μL). The remained lysates were subjected to measure the optical density value at 595 nm with a 96-well microtiter plate reader (Tecan Spark 10M, Switzerland). […] All the experiments were in triplicates. The IC50 value was calculated by a published method ([Chen et al., 2018]).

[7] = Staphylococcus aureus, MRSA, 200 μM, 24 h

## 1,4,5-trihydroxy-7-methoxy-2-methyl-anthraquinone [Compound 14]
[1]; 200 μM, 24 h
  Inhibition rate against Methicillin-resistant Staphylococcus aureus: 52.0%
[2]
  Inhibition rate against Staphylococcus aureus subsp. aureus: – (This symbol “–” represent no activity)
[3]; 200 μM, 24 h
  Inhibition rate against Salmonella enterica subsp. enterica: – (This symbol “–” represent no activity)
[4]; 200 μM, 24 h
  Inhibition rate against Escherichia coli: – (This symbol “–” represent no activity)
[5]; 200 μM, 24 h
  Inhibition rate against Pseudomonas aeruginosa: 38.2%

## CCCCCC1Cc2c(cc(CC=C(C)C)c(O)c2C(=O)O)O1 (racemic) [Compound 1, (±)-Chevalieric acid]
[6]
  IC50: 101 µM

## CC(C)(O/N=C(\C(=O)N[C@@H]1C(=O)N2C(C(=O)[O-])=C(C[n+]3ccccc3)CS[C@H]12)c1csc(N)n1)C(=O)O [Ceftazidime, ceftazidime, reference compound]
[3]
  inhibition at 200 µM: 99.3%
[4]; Escherichia coli, ATCC25922, 24 h, read-out: Inhibition rate against Escherichia coli
  inhibition at 200 µM: 99.8%

## COc1cc(O)cc2c1C(=O)c1c(O)cc(C)cc1[C@@H]2[C@@H](C)CC(C)=O [Compound 2, (10S,12S)-Chevalierone]
[5]; 200 μM, 24 h
  inhibition at 200 µM: 38.2%

## COc1cc(O)cc2c1C(=O)c1c(O)cc(C)cc1[C@@H]2[C@H](C)CC(C)=O [Compound 3, (10S,12R)-Chevalierone]
[1]
  antibacterial activity against MRSA (in words): significant antibacterial activities
[1]; [7]
  inhibition at 200 µM: 74.1%
[5]
  antibacterial activity against P. aeruginosa (in words): significant antibacterial activities
[5]; 200 μM, 24 h
  inhibition at 200 µM: 81.9%

## COc1cc(O)cc2c1C(=O)c1c(O)cc(C)cc1[C@H]2[C@H](C)CC(C)=O [Compound 4, (10R,12R)-Chevalierone]
[1]
  antibacterial activity against MRSA (in words): significant antibacterial activities
[1]; [7]
  inhibition at 200 µM: 85%
[5]
  antibacterial activity against P. aeruginosa (in words): significant antibacterial activities
[5]; 200 μM, 24 h
  inhibition at 200 µM: 81%

## COc1cc(O)cc2c1C(=O)c1c(O)cc(C)cc1[C@H]2[C@@H](C)CC(C)=O [Compound 5, (10R,12S)-Chevalierone]
[1]
  antibacterial activity against MRSA (in words): significant antibacterial activities
[1]; [7]
  inhibition at 200 µM: 88.5%
[1]; Staphylococcus aureus, MRSA, read-out: MIC50 against MRSA
  MIC50: 44 µM (≈ 15.6 µg/mL)
[5]
  antibacterial activity against P. aeruginosa (in words): significant antibacterial activities
[5]; 200 μM, 24 h
  inhibition at 200 µM: 91.5%

## CCCCCCCc1c(O)cc2c(c1C=O)OC(C)(C)C=C2 [Compound 6, asperglaucin B]
[6]
  IC50: > 100 µM
[1]; Staphylococcus aureus, MRSA, read-out: MIC against MRSA
  MIC: 44 µM (≈ 13.3 µg/mL)

## CCC/C=C/c1cc2c(C=O)c(O)c(CC=C(C)C)cc2o1 [Compound 7, 2-(2′,3-epoxy-1′,3′-heptadienyl)-6-hydroxy-5-(3-methyl-2-butenyl)benzaldehyde]
[6]
  IC50: > 100 µM

## CCCCC/C=C/c1c(O)cc(CC=C(C)C)c(O)c1C=O [Compound 8, tetrahydroauroglaucin]
[6]
  IC50: 36.1 µM

## CCC/C=C/C=C/c1c(O)cc(CC=C(C)C)c(O)c1C=O [Compound 9, dihydroauroglaucin]
[6]
  IC50: > 100 µM

## CCCCCCCc1c(O)cc(CC=C(C)C)c(O)c1C=O [Compound 10, flavoglaucin]
[6]
  IC50: 40.9 µM
In vitro
  IC50 at 48 h: 39.7 µM

## C/C=C/C=C/CCc1c(O)cc(CC=C(C)C)c(O)c1C=O [Compound 11, isodihydroauroglaucin]
[6]
  IC50: 34.9 µM

## CC(C)=CCc1cc2oc(=O)ccc2c(C=O)c1O [Compound 12, cristaldehyde A]
[6]
  IC50: > 100 µM

## CCC[C@@H](O)[C@@H]1C=Cc2c(cc(CC=C(C)C)c(O)c2C=O)O1 [Compound 13, (3′S,4′R)-6-(3′,5-epoxy-4′-hydroxy-1′-heptenyl)-2-hyd roxy-3-(3″-methyl-2″-butenyl)benzaldehyde]
[6]
  IC50: > 100 µM

## COc1cc(O)c2c(c1)C(=O)c1cc(C)cc(O)c1C2=O [Compound 15, physcion]
[5]; 200 μM, 24 h
  inhibition at 200 µM: 38%

## CC1(C)S[C@@H]2[C@H](NC(=O)Cc3ccccc3)C(=O)N2[C@H]1C(=O)O [Penicillin G sodium, Penicillin G sodium salt, reference compound]
[1]; [7]
  inhibition at 200 µM: 60.5%
[3]
  inhibition at 200 µM: 75.7%
[5]; 200 μM, 24 h
  inhibition at 200 µM: 99.9%
